Assay results from the NIST ThermoML archive (doi:10.1021/je101178u).
“And” between values parts separate entries of the source, which are not always exact repeats. Equal entries are not always repeated. Numbers after ± are expanded uncertainties.

Settings: Fluid (supercritical or subcritical phases); for viscosity: vibrating wire; for mass density: Buoyancy - hydrostatic balance with magnetic suspension - one sinker

Q: Which viscosity (366.15 K, 2181.8 kPa) does the source give for `CCC` [propane] here?
A: 0.01055 ± 6.4e-05 mPa·s

Q: What about the mass density (366.15 K, 2559.1 kPa) of the same molecule?
A: 50.015 ± 0.11 kg/m3

Q: What about the viscosity (366.15 K, 2559.1 kPa) of the same molecule?
A: 0.01083 ± 6.5e-05 mPa·s

Q: What about the mass density (366.15 K, 2883 kPa) of the same molecule?
A: 60.029 ± 0.14 kg/m3

Q: And the viscosity (366.15 K, 2883 kPa)?
A: 0.01114 ± 6.7e-05 mPa·s

Q: What about the mass density (366.15 K, 3154.4 kPa) of the same molecule?
A: 70.033 ± 0.17 kg/m3

Q: And the viscosity (366.15 K, 3154.4 kPa)?
A: 0.01149 ± 6.9e-05 mPa·s

Q: And the mass density (366.15 K, 3381.1 kPa)?
A: 80.175 ± 0.2 kg/m3

Q: And the viscosity (366.15 K, 3381.1 kPa)?
A: 0.0119 ± 7.2e-05 mPa·s

Q: What about the mass density (366.15 K, 3559.5 kPa) of the same molecule?
A: 90.05 ± 0.25 kg/m3

Q: What about the viscosity (366.15 K, 3559.5 kPa) of the same molecule?
A: 0.01232 ± 7.5e-05 mPa·s

Q: And the mass density (366.15 K, 3704.1 kPa)?
A: 100.205 ± 0.29 kg/m3

Q: And the viscosity (366.15 K, 3704.1 kPa)?
A: 0.01282 ± 7.8e-05 mPa·s

Q: And the mass density (366.15 K, 3704.9 kPa)?
A: 100.267 ± 0.29 kg/m3

Q: And the viscosity (366.15 K, 3704.9 kPa)?
A: 0.01282 ± 7.8e-05 mPa·s

Q: What about the mass density (373.15 K, 70 kPa) of the same molecule?
A: 1.0004 ± 0.003 kg/m3

Q: What about the viscosity (373.15 K, 70 kPa) of the same molecule?
A: 0.01008 ± 6.1e-05 mPa·s

Q: What about the mass density (373.15 K, 139.24 kPa) of the same molecule?
A: 2.0008 ± 0.0048 kg/m3

Q: What about the viscosity (373.15 K, 139.24 kPa) of the same molecule?
A: 0.0101 ± 6.1e-05 mPa·s

Q: What about the mass density (373.15 K, 275.58 kPa) of the same molecule?
A: 4.0037 ± 0.0087 kg/m3

Q: And the viscosity (373.15 K, 275.58 kPa)?
A: 0.01012 ± 6.1e-05 mPa·s

Q: And the mass density (373.15 K, 408.76 kPa)?
A: 6.0045 ± 0.013 kg/m3

Q: And the viscosity (373.15 K, 408.76 kPa)?
A: 0.01014 ± 6.1e-05 mPa·s

Q: And the mass density (373.15 K, 538.6 kPa)?
A: 7.9996 ± 0.017 kg/m3

Q: And the viscosity (373.15 K, 538.6 kPa)?
A: 0.01017 ± 6.1e-05 mPa·s

Q: What about the mass density (373.15 K, 666.93 kPa) of the same molecule?
A: 10.017 ± 0.021 kg/m3

Q: And the viscosity (373.15 K, 666.93 kPa)?
A: 0.0102 ± 6.2e-05 mPa·s

Q: And the mass density (373.15 K, 733.66 kPa)?
A: 11.085 ± 0.023 kg/m3

Q: And the viscosity (373.15 K, 733.66 kPa)?
A: 0.01021 ± 6.2e-05 mPa·s

Q: And the mass density (373.15 K, 917.57 kPa)?
A: 14.099 ± 0.03 kg/m3

Q: And the viscosity (373.15 K, 917.57 kPa)?
A: 0.01026 ± 6.2e-05 mPa·s

Q: And the mass density (373.15 K, 1023.3 kPa)?
A: 15.881 ± 0.034 kg/m3

Q: And the viscosity (373.15 K, 1023.3 kPa)?
A: 0.01029 ± 6.2e-05 mPa·s

Q: What about the mass density (373.15 K, 1147.8 kPa) of the same molecule?
A: 18.031 ± 0.038 kg/m3

Q: What about the viscosity (373.15 K, 1147.8 kPa) of the same molecule?
A: 0.01033 ± 6.2e-05 mPa·s

Q: What about the mass density (373.15 K, 1248 kPa) of the same molecule?
A: 19.801 ± 0.042 kg/m3

Q: And the viscosity (373.15 K, 1248 kPa)?
A: 0.01036 ± 6.2e-05 mPa·s

Q: What about the mass density (373.15 K, 1781.8 kPa) of the same molecule?
A: 29.954 ± 0.064 kg/m3

Q: What about the viscosity (373.15 K, 1781.8 kPa) of the same molecule?
A: 0.01058 ± 6.4e-05 mPa·s

Q: What about the mass density (373.15 K, 1781.9 kPa) of the same molecule?
A: 29.957 ± 0.064 kg/m3

Q: What about the viscosity (373.15 K, 1781.9 kPa) of the same molecule?
A: 0.01058 ± 6.4e-05 mPa·s

Q: What about the mass density (373.15 K, 2244.2 kPa) of the same molecule?
A: 39.982 ± 0.087 kg/m3

Q: And the viscosity (373.15 K, 2244.2 kPa)?
A: 0.01083 ± 6.6e-05 mPa·s

Q: And the mass density (373.15 K, 2244.5 kPa)?
A: 39.99 ± 0.087 kg/m3

Q: And the viscosity (373.15 K, 2244.5 kPa)?
A: 0.01084 ± 6.6e-05 mPa·s

Q: And the mass density (373.15 K, 2640.8 kPa)?
A: 49.856 ± 0.11 kg/m3

Q: And the viscosity (373.15 K, 2640.8 kPa)?
A: 0.01113 ± 6.7e-05 mPa·s

Q: And the mass density (373.15 K, 2640.9 kPa)?
A: 49.858 ± 0.11 kg/m3

Q: And the viscosity (373.15 K, 2640.9 kPa)?
A: 0.01113 ± 6.7e-05 mPa·s

Q: And the mass density (373.15 K, 2984.3 kPa)?
A: 59.751 ± 0.14 kg/m3

Q: What about the viscosity (373.15 K, 2984.3 kPa) of the same molecule?
A: 0.01146 ± 6.9e-05 mPa·s

Q: And the mass density (373.15 K, 2984.4 kPa)?
A: 59.753 ± 0.14 kg/m3

Q: And the viscosity (373.15 K, 2984.4 kPa)?
A: 0.01146 ± 6.9e-05 mPa·s

Q: And the mass density (373.15 K, 3288.7 kPa)?
A: 70.03 ± 0.17 kg/m3

Q: What about the viscosity (373.15 K, 3288.7 kPa) of the same molecule?
A: 0.01186 ± 7.1e-05 mPa·s

Q: And the mass density (373.15 K, 3289 kPa)?
A: 70.041 ± 0.17 kg/m3

Q: What about the viscosity (373.15 K, 3289 kPa) of the same molecule?
A: 0.01186 ± 7.1e-05 mPa·s

Q: And the mass density (373.15 K, 3531.3 kPa)?
A: 79.736 ± 0.2 kg/m3

Q: And the viscosity (373.15 K, 3531.3 kPa)?
A: 0.01227 ± 7.4e-05 mPa·s

Q: What about the mass density (373.15 K, 3531.6 kPa) of the same molecule?
A: 79.746 ± 0.2 kg/m3

Q: And the viscosity (373.15 K, 3531.6 kPa)?
A: 0.01227 ± 7.4e-05 mPa·s

Q: And the mass density (373.15 K, 3739.8 kPa)?
A: 89.698 ± 0.25 kg/m3

Q: What about the viscosity (373.15 K, 3739.8 kPa) of the same molecule?
A: 0.01273 ± 7.7e-05 mPa·s

Q: And the mass density (373.15 K, 3740.2 kPa)?
A: 89.72 ± 0.25 kg/m3

Q: And the viscosity (373.15 K, 3740.2 kPa)?
A: 0.01273 ± 7.7e-05 mPa·s

Q: What about the mass density (373.15 K, 3909.1 kPa) of the same molecule?
A: 99.505 ± 0.3 kg/m3

Q: And the viscosity (373.15 K, 3909.1 kPa)?
A: 0.01323 ± 8.1e-05 mPa·s

Q: What about the mass density (373.15 K, 3909.3 kPa) of the same molecule?
A: 99.518 ± 0.3 kg/m3

Q: What about the viscosity (373.15 K, 3909.3 kPa) of the same molecule?
A: 0.01323 ± 8.1e-05 mPa·s

Q: And the mass density (373.15 K, 4152.5 kPa)?
A: 118.628 ± 0.42 kg/m3

Q: What about the viscosity (373.15 K, 4152.5 kPa) of the same molecule?
A: 0.01431 ± 9.3e-05 mPa·s

Q: And the mass density (373.15 K, 4152.6 kPa)?
A: 118.636 ± 0.42 kg/m3

Q: And the viscosity (373.15 K, 4152.6 kPa)?
A: 0.01431 ± 9.3e-05 mPa·s

Q: And the mass density (373.15 K, 4314.6 kPa)?
A: 139.152 ± 0.41 kg/m3 and 139.148 ± 0.41 kg/m3

Q: And the viscosity (373.15 K, 4314.6 kPa)?
A: 0.01561 ± 9.7e-05 mPa·s

Q: What about the mass density (373.15 K, 4400.6 kPa) of the same molecule?
A: 157.919 ± 0.53 kg/m3

Q: What about the viscosity (373.15 K, 4400.6 kPa) of the same molecule?
A: 0.01691 ± 0.00011 mPa·s

Q: What about the mass density (373.15 K, 4400.7 kPa) of the same molecule?
A: 157.947 ± 0.53 kg/m3

Q: What about the viscosity (373.15 K, 4400.7 kPa) of the same molecule?
A: 0.01692 ± 0.00011 mPa·s

Q: What about the mass density (373.15 K, 4432.9 kPa) of the same molecule?
A: 169.072 ± 0.66 kg/m3 and 169.051 ± 0.66 kg/m3 and 169.087 ± 0.66 kg/m3

Q: What about the viscosity (373.15 K, 4432.9 kPa) of the same molecule?
A: 0.01772 ± 0.00013 mPa·s and 0.01773 ± 0.00013 mPa·s

Q: What about the mass density (373.15 K, 4458.2 kPa) of the same molecule?
A: 181.456 ± 0.75 kg/m3 and 181.487 ± 0.75 kg/m3

Q: And the viscosity (373.15 K, 4458.2 kPa)?
A: 0.01876 ± 0.00014 mPa·s

Q: And the mass density (373.15 K, 4477.3 kPa)?
A: 194.68 ± 0.75 kg/m3

Q: And the viscosity (373.15 K, 4477.3 kPa)?
A: 0.02002 ± 0.00014 mPa·s

Q: What about the mass density (373.15 K, 4477.4 kPa) of the same molecule?
A: 194.74 ± 0.75 kg/m3

Q: And the viscosity (373.15 K, 4477.4 kPa)?
A: 0.02003 ± 0.00014 mPa·s

Q: What about the mass density (373.15 K, 4491.9 kPa) of the same molecule?
A: 207.584 ± 0.78 kg/m3

Q: What about the viscosity (373.15 K, 4491.9 kPa) of the same molecule?
A: 0.02135 ± 0.00015 mPa·s

Q: And the mass density (373.15 K, 4492 kPa)?
A: 207.643 ± 0.78 kg/m3

Q: What about the viscosity (373.15 K, 4492 kPa) of the same molecule?
A: 0.02135 ± 0.00015 mPa·s

Q: And the mass density (373.15 K, 4502.7 kPa)?
A: 218.095 ± 0.81 kg/m3 and 218.113 ± 0.81 kg/m3

Q: And the viscosity (373.15 K, 4502.7 kPa)?
A: 0.02247 ± 0.00016 mPa·s

Q: And the mass density (373.15 K, 4512.2 kPa)?
A: 227.171 ± 0.83 kg/m3 and 227.14 ± 0.83 kg/m3

Q: And the viscosity (373.15 K, 4512.2 kPa)?
A: 0.02347 ± 0.00017 mPa·s

Q: What about the mass density (373.15 K, 4515 kPa) of the same molecule?
A: 229.692 ± 0.84 kg/m3

Q: And the viscosity (373.15 K, 4515 kPa)?
A: 0.02376 ± 0.00017 mPa·s
